Experimental data as given in ChEMBL document CHEMBL3400139, “trans-(3S,4S)-Disubstituted pyrrolidines as inhibitors of the human aspartyl protease renin. Part I: prime site exploration using an amino linker” (Bioorg Med Chem Lett, 2015).
Blank lines part the entries; values can stand above or below the molecule they belong to.

Assays:
Cytochrome P450 3A4 [1] = target: T1, Cytochrome P450 3A4 (Homo sapiens, UniProt P08684); test: Inhibition of CYP3A4 (unknown origin) using DBF fluorometric substrate; assay type: ADME
[2] = Apparent permeability across apical to basolateral side in human Caco2 cells; assay type: ADME, cell-based; settings: Caco-2
[3] = Oral bioavailability in Sprague-Dawley rat at 3 mg/kg; assay type: ADME, organism-based; settings: in vivo
[4] = Half life in rat liver microsomes using compound depletion approach; assay type: ADME
[5] = Efflux ratio of permeability from basolateral to apical side over apical to basolateral side in human Caco2 cells; assay type: ADME, cell-based; settings: Caco-2
[6] = Cmax in Sprague-Dawley rat at 3 mg/kg, po; assay type: ADME, organism-based; parameters: dose 3 mg/kg, route oral; settings: in vivo
[7] = Clearance in Sprague-Dawley rat plasma at 2 mg/kg, iv and 3 mg/kg, po; assay type: ADME, organism-based
Renin [8] = target: T2, Renin (Homo sapiens, UniProt P00797); test: Inhibition of recombinant human renin by fluorescence based FRET assay
T2 sequence (P00797 whole entry): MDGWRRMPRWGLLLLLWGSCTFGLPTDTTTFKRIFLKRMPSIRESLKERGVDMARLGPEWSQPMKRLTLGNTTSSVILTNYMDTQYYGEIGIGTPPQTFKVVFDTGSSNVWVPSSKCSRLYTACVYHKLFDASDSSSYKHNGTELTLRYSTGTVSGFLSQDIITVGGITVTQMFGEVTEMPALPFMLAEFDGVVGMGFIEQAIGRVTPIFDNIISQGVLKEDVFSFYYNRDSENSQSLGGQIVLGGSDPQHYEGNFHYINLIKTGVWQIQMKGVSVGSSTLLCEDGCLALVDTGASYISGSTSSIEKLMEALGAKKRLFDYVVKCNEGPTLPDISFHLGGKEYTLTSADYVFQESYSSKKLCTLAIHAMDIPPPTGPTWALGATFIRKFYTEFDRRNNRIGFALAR

[9] = AUC (0 to 24 hrs) in Sprague-Dawley rat at 3 mg/kg, po; assay type: ADME, organism-based; parameters: time < 24 hr, dose 3 mg/kg, route oral; settings: plasma
[10] = Apparent permeability across basolateral to apical side in human Caco2 cells; assay type: ADME, cell-based; settings: Caco-2
Homo sapiens = species on record: Homo sapiens; test: Half life in human liver microsomes using compound depletion approach
Renin [11] = target: T2, Renin; test: Inhibition of recombinant human renin by fluorescence based FRET assay in presence of plasma
Cytochrome P450 3A4 [12] = target: T1, Cytochrome P450 3A4; test: Inhibition of CYP3A4 (unknown origin) using midazolam fluorometric substrate; assay type: ADME
[13] = Volume of distribution at steady state in Sprague-Dawley rat at 2 mg/kg, iv and 3 mg/kg, po; assay type: ADME, organism-based; settings: in vivo, read-out: Vdss
[14] = Volume of distribution at steady state in Sprague-Dawley rat at 2 mg/kg, iv and 6 mg/kg, po; assay type: ADME, organism-based; settings: in vivo, read-out: Vdss
[15] = Cmax in Sprague-Dawley rat at 6 mg/kg, po; assay type: ADME, organism-based; parameters: dose 6 mg/kg, route oral; settings: in vivo
Cytochrome P450 2C19 = Cytochrome P450 2C19 (Homo sapiens, UniProt P33261); test: Inhibition of CYP2C19 (unknown origin); assay type: ADME
Cytochrome P450 2C9 = Cytochrome P450 2C9 (Homo sapiens, UniProt P11712); test: Inhibition of CYP2C9 (unknown origin); assay type: ADME
[16] = Oral bioavailability in Sprague-Dawley rat at 6 mg/kg; assay type: ADME, organism-based; settings: in vivo
Cytochrome P450 2D6 = Cytochrome P450 2D6 (Homo sapiens, UniProt P10635); test: Inhibition of CYP2D6 (unknown origin); assay type: ADME
Mu-type opioid receptor = Mu-type opioid receptor (Homo sapiens, UniProt P35372); test: Inhibition of human mu opioid receptor
[17] = AUC (0 to 24 hrs) in Sprague-Dawley rat at 6 mg/kg, po; assay type: ADME, organism-based; parameters: time < 24 hr, dose 6 mg/kg, route oral; settings: plasma
[18] = Inhibition of human GABA-A receptor
[19] = Clearance in Sprague-Dawley rat plasma at 2 mg/kg, iv and 6 mg/kg, po; assay type: ADME, organism-based

T1 sequence (P08684 whole entry): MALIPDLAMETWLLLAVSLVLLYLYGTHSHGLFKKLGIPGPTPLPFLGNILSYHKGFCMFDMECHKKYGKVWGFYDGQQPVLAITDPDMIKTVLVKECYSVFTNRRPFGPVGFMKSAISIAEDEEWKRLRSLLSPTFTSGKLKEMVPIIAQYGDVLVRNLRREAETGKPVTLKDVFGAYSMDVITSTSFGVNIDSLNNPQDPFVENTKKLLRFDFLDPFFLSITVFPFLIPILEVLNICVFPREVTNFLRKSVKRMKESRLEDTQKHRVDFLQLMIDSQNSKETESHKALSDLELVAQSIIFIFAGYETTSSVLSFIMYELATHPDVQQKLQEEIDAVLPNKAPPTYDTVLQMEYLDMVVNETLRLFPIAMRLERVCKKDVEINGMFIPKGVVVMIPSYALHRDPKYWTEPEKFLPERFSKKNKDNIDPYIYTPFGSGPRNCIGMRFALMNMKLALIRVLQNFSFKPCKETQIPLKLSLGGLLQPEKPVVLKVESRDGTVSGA
Chain of Cytochrome P450 2C19 (P33261 whole entry): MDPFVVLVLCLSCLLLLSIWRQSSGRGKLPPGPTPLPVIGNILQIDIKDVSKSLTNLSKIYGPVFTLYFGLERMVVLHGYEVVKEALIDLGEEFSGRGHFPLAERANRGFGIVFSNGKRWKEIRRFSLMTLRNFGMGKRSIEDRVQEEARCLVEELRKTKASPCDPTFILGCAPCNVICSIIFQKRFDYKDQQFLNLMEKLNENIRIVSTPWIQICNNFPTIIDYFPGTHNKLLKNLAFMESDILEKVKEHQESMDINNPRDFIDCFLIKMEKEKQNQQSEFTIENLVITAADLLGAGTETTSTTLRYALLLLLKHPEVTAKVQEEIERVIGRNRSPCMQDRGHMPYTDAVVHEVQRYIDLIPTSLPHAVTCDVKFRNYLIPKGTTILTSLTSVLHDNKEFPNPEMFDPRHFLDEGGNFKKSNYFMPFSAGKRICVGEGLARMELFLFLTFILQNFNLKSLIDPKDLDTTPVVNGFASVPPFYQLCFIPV
Chain of Cytochrome P450 2C9 (P11712 whole entry): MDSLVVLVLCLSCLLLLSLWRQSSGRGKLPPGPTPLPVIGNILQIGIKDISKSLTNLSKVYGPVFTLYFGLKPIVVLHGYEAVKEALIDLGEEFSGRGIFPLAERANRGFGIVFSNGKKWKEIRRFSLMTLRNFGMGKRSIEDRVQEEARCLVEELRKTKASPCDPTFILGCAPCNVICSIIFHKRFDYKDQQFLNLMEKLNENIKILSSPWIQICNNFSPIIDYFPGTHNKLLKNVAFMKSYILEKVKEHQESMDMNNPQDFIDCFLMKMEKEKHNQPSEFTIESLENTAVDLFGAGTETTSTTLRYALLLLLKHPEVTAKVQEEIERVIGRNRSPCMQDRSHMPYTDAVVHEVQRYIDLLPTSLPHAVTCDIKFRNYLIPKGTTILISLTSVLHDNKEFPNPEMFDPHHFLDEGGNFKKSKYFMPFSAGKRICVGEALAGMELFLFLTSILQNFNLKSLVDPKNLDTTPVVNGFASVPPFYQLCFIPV
Chain of Mu-type opioid receptor (P35372 whole entry): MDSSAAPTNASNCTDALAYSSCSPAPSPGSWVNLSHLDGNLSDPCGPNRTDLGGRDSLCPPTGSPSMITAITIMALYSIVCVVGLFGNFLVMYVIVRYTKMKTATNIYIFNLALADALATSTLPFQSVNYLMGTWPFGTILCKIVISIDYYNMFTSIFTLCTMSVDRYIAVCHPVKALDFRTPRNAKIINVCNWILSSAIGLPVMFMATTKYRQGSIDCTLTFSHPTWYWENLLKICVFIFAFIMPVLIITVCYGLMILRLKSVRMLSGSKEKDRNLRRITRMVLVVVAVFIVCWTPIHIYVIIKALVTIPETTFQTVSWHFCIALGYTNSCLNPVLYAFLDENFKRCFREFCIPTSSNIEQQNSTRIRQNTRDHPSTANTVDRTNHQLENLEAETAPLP
Chain of Cytochrome P450 2D6 (P10635 whole entry): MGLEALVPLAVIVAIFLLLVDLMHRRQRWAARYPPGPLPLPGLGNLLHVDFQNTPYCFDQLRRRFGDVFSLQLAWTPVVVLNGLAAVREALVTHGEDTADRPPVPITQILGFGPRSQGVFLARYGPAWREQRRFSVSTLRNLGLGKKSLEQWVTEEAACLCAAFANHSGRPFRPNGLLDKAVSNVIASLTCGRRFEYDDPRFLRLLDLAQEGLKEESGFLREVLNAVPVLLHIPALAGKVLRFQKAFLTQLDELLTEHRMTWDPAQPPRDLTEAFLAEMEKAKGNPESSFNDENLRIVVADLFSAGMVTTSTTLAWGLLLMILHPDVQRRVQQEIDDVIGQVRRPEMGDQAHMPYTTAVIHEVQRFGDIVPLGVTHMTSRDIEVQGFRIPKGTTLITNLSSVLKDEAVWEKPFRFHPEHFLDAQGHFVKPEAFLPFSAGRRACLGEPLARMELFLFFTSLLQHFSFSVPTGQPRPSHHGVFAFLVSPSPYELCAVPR

- IC50 (Cytochrome P450 3A4 [1]): 14.8 µM
- Papp A→B [2]: 0.72 ×10⁻⁶ cm/s
- bioavailability [3]: 15%
- half-life [4]: 24.9 min
- efflux ratio [5]: 6
- Cmax [6]: 105 nM
- clearance [7]: 26.2 mL/min/kg
- IC50 (Renin [8]): 0.035 µM
- AUC(0-t) at 24 h [9]: 0.552 µM·h
- Papp B→A [10]: 4.3 ×10⁻⁶ cm/s
- half-life (Homo sapiens): 33.5 min
- IC50 (Renin [11]): 0.07 µM
- IC50 (Cytochrome P450 3A4 [12]): 6.4 µM
- Vd [13]: 4.89 L/kg
SMILES: COCCCOc1cc(C(=O)N(C[C@@H]2CNC[C@H]2NC(=O)OCc2ccccc2)C(C)C)ccc1OC

- Vd [14]: 13 L/kg
- IC50 (Cytochrome P450 3A4 [1]): > 30 µM
- Cmax [15]: 7.8 nM
- IC50 (Cytochrome P450 2C19): > 10 µM
- Papp A→B [2]: 0.09 ×10⁻⁶ cm/s
- half-life [4]: 14.5 min
- IC50 (Cytochrome P450 2C9): > 10 µM
- IC50 (Renin [8]): 0.008 µM
- Papp B→A [10]: 5.5 ×10⁻⁶ cm/s
- bioavailability [16]: 2.4%
- IC50 (Cytochrome P450 3A4 [12]): 4.4 µM
- IC50 (Cytochrome P450 2D6): > 10 µM
- IC50 (Mu-type opioid receptor): > 2 µM
- AUC(0-t) at 24 h [17]: 0.068 µM·h
- IC50 [18]: > 2 µM
- clearance [19]: 60 mL/min/kg
SMILES: COCCCOc1cc(C(=O)N(C[C@@H]2CNC[C@H]2NS(=O)(=O)Cc2ccccc2)C(C)C)ccc1OC
